Earlier results on two substances are cited in patent US20260057961A1, “CHROMOSOME 9P24 LOSS AND GAIN PREDICTS RESISTANCE AND BENEFIT OF IMMUNE CHECKPOINT INHIBITORS” (THE REGENTS OF THE UNIVERSITY OF CALIFORNIA, priority 2022, published 2026).

Series [1] deals with HNSC. The conditions noted are these: recurrent/metastatic setting after platinum failure.
Series [2] deals with HNSC.

On to nivolumab, for which, in series [1], the “overall survival compared to chemotherapy or cetuximab” value is on record as “improved overall survival”.
Turning to pembrolizumab, the “overall survival compared to chemotherapy or cetuximab” value in series [1] was “improved overall survival”. The “overall survival compared to chemotherapy” value in series [2] (pembrolizumab alone, approximately 20% of patients, with no PD-L1 expression) is recorded as “worse”. The “survival versus platinum/5FU/cetuximab” value in series [2] (pembrolizumab monotherapy, patients whose tumors expressed PD-L1 protein by immunohistochemistry) is “improved survival”.
